Source: patent EP2246329A1, “4(1H)-pyridinone derivatives and their use as antimalaria agents” (Glaxo Group Limited, priority 2009, dated 2010)
Where a name gives a salt, the structure may show the parent alone.

The compounds below were run on Plasmodium falciparum (assay: In vitro anti-malarial activity against Plasmodium falciparum, IC50 assay / [3H]-Hypoxanthine incorporation assay). Details: Erythrocyte; Plasmodium falciparum strains in parasitized red blood cells, [3H]-hypoxanthine incorporation, 48 hours at 37°C.
Format: cell-based
Method: The compounds of this invention may be tested in one of several biological assays to determine the concentration of compound which is required to have a given pharmacological effect. In vitro anti-malarial activity against Plasmodium falciparum. IC50 assay / [^3H]-Hypoxanthine assay
The culture medium comprised RPMI 1640 with 25mM HEPES, sodium bicarbonate and glutamine (GIBCO™ cat. ref.: 52400), supplemented with 10% of pooled human sera AB (Irvine Scientific, cat. ref.: 5009) and HT supplement (0.15 mM hypoxanthine and 24 µM thymidine), (GIBCO™ cat. ref.: 41065). Human sera were decomplemented 30 min. at 56°C, aliquoted and stored frozen at -20°C until use in this culture medium.
This culture medium ("complete medium") was usually prepared fresh just before use and pre-warmed to 37°C.
Red blood cells O+ stock suspensions were prepared from whole blood bags coming from incomplete blood donation, provided by the Spanish Red Cross (<25 days after sampling). This "whole blood" was aliquoted and stored at 4°C.
To prepare red blood cells for the assay, the whole blood was centrifuged and washed 3 times with RPMI without serum. The upper phase, containing white blood cells was removed. The washed red blood cells were kept as a 50 % suspension in complete medium. The prepared cells were stored at 4°C and were employed in the assay at any time up to 4 days after preparation.
Test compounds were dissolved at 2 mg/ml in 100% DMSO on the day of the assay. If necessary, complete dissolution was achieved by gentle heating (the mixture was heated at a temperature <37°C) and sonication (sonication bath).
For IC50 determinations, 10 serial 2-fold dilutions were prepared in complete medium in the presence of a constant amount of DMSO. Any obvious signs of insolubility of the stock solutions in 100% DMSO or precipitation when these solutions were diluted in assay media, were recorded.
Plasmodium falciparum strains were maintained in complete medium at an hematocrit of 5% in continuous culture using a method adapted from that published by Trager and Jensen(1) and Traeger(2).
The parasitemia was calculated by counting the percentage of parasitized erythrocytes by optical microscopy. Thin films of blood were made every day from each culture flask, fixed with methanol and stained for 10 min. in Giemsa (Merck, cat. ref.: 1.09204) at 10 % in buffered water pH 7.2. The glass slides were observed and counted with an optical microscope (Nikon, Eclipse E200) equipped with a 100 X immersion oil objective.
The culture was maintained at an hematocrit of 5%, with a daily change of medium and was diluted when parasitemia had reached about 5%.
[^3H] Hypoxanthine incorporation assay was conducted using a method adapted from Desjardins et al. (3). The assays were performed in 96 wells flat bottom microplates. • 1. Serial dilutions of the test compounds (50µl of a 5X solution / well) were deposited in duplicate. Compounds of the invention were tested in this assay. Chloroquine and Atovaquone were used as control compounds for each assay. • 2. […] [^3H]-Hypoxanthine (Amersham Biosciences, cat. ref.: TRK74) was added extemporaneously to the inoculum suspension at a concentration of 1 µCi/ml (equating to […]). 200 µl of the resulting suspension was distributed into each well (other than the control well H12 described below) leading to a final volume of 250 µl per well, at 2% of hematocrit and 0.5 % of parasitemia / well. • 4. […]

With `Cc1[nH]c(C)c(-c2ccc3sc(CN(C)Cc4ccc(OC(F)(F)F)cc4)cc3c2)c(=O)c1Cl.Cl` [Example 31, 3-Chloro-2,6-dimethyl-5-(2-{[methyl({4-[(trifluoromethyl)oxy]phenyl}methyl)amino]methyl}-1-benzothien-5-yl)-4(1H)-pyridinone hydrochloride] as the compound, how does the IC50 read?
Its IC50 is under 0.125 mg/L.

`Cc1[nH]c(C)c(-c2ccc(C3=CCN(Cc4ccc(OC(F)(F)F)cc4)CC3)cc2)c(=O)c1Cl.Cl` [Example 32, 3-Chloro-2,6-dimethyl-5-{4-[1-({4-[(trifluoromethyl)oxy]phenyl}methyl)-1,2,3,6-tetrahydro-4-pyridinyl]phenyl}-4(1H)-pyridinone hydrochloride] was tested. Which IC50 did it give?
The IC50 was under 0.125 mg/L.

`Cc1[nH]c(C)c(-c2ccc(-c3ccc(CN4CCC(c5ccc(OC(F)(F)F)cc5)CC4)cc3)cc2)c(=O)c1Cl.Cl` [Example 33, 3-Chloro-2,6-dimethyl-5-{4'-[(4-{4-[(trifluoromethyl)oxy]phenyl}-1-piperidinyl)methyl]-4-biphenylyl}-4(1H)-pyridinone hydrochloride] was tested. Which IC50 did it give?
The IC50 was under 0.125 mg/L.

Which IC50 does the source give for `Cc1[nH]c(C)c(-c2ccc(-c3cccc(CN(C)Cc4ccc(OC(F)(F)F)cc4)c3)cc2)c(=O)c1Cl.Cl` [Example 34, 3-Chloro-2,6-dimethyl-5-(3'-{[methyl({4-[(trifluoromethyl)oxy]phenyl}methyl)amino]methyl}-4-biphenylyl)-4(1H)-pyridinone hydrochloride] here?
The IC50 was under 0.125 mg/L.

How did the IC50 turn out when `Cc1[nH]c(C)c(-c2ccc(-c3ccc(CN(C)Cc4ccc(OC(F)(F)F)cc4)cc3)cc2)c(=O)c1Cl.Cl` [Example 35, 3-Chloro-2,6-dimethyl-5-(4'-{[methyl({4-[(trifluoromethyl)oxy]phenyl}methyl)amino]methyl}-4-biphenylyl)-4(1H)-pyridinone hydrochloride] was run?
Its IC50 is under 0.125 mg/L.

Which IC50 does the source give for `Cc1[nH]c(C)c(-c2ccc(C#CCN(C)Cc3ccc(F)cc3F)cc2)c(=O)c1Cl.Cl` [Example 40, 3-Chloro-5-(4-{3-[[(2,4-difluorophenyl)methyl](methyl)amino]-1-propyn-1-yl}phenyl)-2,6-dimethyl-4(1H)-pyridinone hydrochloride] here?
Its IC50 is under 0.125 mg/L.

With `Cc1[nH]c(C)c(-c2ccc(C#CCN(C)Cc3ccco3)cc2)c(=O)c1Cl.Cl` [Example 41, 3-Ch loro-5-(4-{3-[(2-furanylmethyl)(methyl)amino]-1-propyn-1-yl}phenyl)-2,6-dimethyl-4(1H)-pyridinone hydrochloride] as the compound, how does the IC50 read?
Its IC50 is under 0.125 mg/L.

For `Cc1ccc(CN(C)CC#Cc2ccc(-c3c(C)[nH]c(C)c(Cl)c3=O)cc2)s1.Cl` [Example 42, 3-Chloro-2,6-dimethyl-5-[4-(3-{methyl[(5-methyl-2-thienyl)methyl]amino}-1-propyn-1-yl)phenyl]-4(1H)-pyridinone hydrochloride], which IC50 is on record?
The IC50 was under 0.125 mg/L.

How did the IC50 turn out when `Cc1[nH]c(C)c(-c2ccc(C#CCN(C)Cc3nccs3)cc2)c(=O)c1Cl.Cl` [Example 43, 3-Chloro-2,6-dimethyl-5-(4-{3-[methyl(1,3-thiazol-2-ylmethyl)amino]-1-propyn-1-yl}phenyl)-4(1H)-pyridinone hydrochloride] was run?
Its IC50 is under 0.125 mg/L.

For `Cc1[nH]c(C)c(-c2ccc(C#CCN(C)Cc3cccn3C)cc2)c(=O)c1Cl.Cl` [Example 44, 3-Chloro-2,6-dimethyl-5-[4-(3-{methyl[(1-methyl-1H-pyrrol-2-yl)methyl]amino}-1-propyn-1-yl)phenyl]-4(1H)-pyridinone hydrochloride], which IC50 is on record?
The IC50 was under 0.125 mg/L.

For `Cc1[nH]c(C)c(-c2ccc(C#CCN(C)Cc3ccsc3)cc2)c(=O)c1Cl.Cl` [Example 45, 3-Chloro-2,6-dimethyl-5-(4-{3-[methyl(3-thienylmethyl)amino]-1-propyn-1-yl}phenyl)-4(1H)-pyridinone hydrochloride], which IC50 is on record?
The IC50 was under 0.125 mg/L.

`Cc1[nH]c(C)c(-c2ccc(C#CCN(C)Cc3ccc(Cl)cc3Cl)cc2)c(=O)c1Cl.Cl` [Example 46, 3-Chloro-5-(4-{3-[[(2,4-dichlorophenyl)methyl](methyl)amino]-1-propyn-1-yl}phenyl)-2 ,6-dimethyl-4(1H)-pyridinone hydrochloride] was tested. Which IC50 did it give?
The IC50 was under 0.125 mg/L.

For `Cc1[nH]c(C)c(-c2ccc(C#CCN(C)Cc3ccc(S(C)(=O)=O)cc3)cc2)c(=O)c1Cl.Cl` [Example 47, 3-Chloro-2,6-dimethyl-5-{4-[3-(methyl{[4-(methylsulfonyl)phenyl]methyl}amino)-1-propyn-1-yl]phenyl}-4(1H)-pyridinone hydrochloride], which IC50 is on record?
Its IC50 is under 0.125 mg/L.

Which IC50 does the source give for `Cc1[nH]c(C)c(-c2ccc(C#CCN(C)CCC(C)(C)C)cc2)c(=O)c1Cl.Cl` [Example 48, 3-Chloro-5-(4-{3-[(3,3-dimethylbutyl)(methyl)amino]-1-propyn-1-yl}phenyl)-2 ,6-dimethyl-4(1H)-pyridinone hydrochloride] here?
Its IC50 is under 0.125 mg/L.

`Cc1[nH]c(C)c(-c2ccc(C#CCN(C)CCC(F)(F)F)cc2)c(=O)c1Cl.Cl` [Example 49, 3-Chloro-2,6-dimethyl-5-(4-{3-[methyl(3,3,3-trifluoropropyl)amino]-1-propyn-1-yl}phenyl)-4(1H)-pyridinone hydrochloride] was tested. Which IC50 did it give?
Its IC50 is under 0.125 mg/L.

For `Cc1[nH]c(C)c(-c2ccc(C#CCN(C)Cc3ccc(F)cc3)cc2)c(=O)c1Cl` [Example 50, 3-Chloro-5-(4-{3-[[(4-fluorophenyl)methyl](methyl)amino]-1-propyn-1-yl}phenyl)-2,6-dimethyl-4(1H)-pyridinone], which IC50 is on record?
The IC50 was under 0.125 mg/L.

For `CC(=O)Oc1c(Cl)c(C)nc(C)c1-c1ccc(-c2ccc(CN3CCC(c4ccc(OC(F)(F)F)cc4)CC3)cc2)cc1.Cl` [Example 56, 3-Chloro-2,6-dimethyl-5-{4'-[(4-{4-[(trifluoromethyl)oxy]phenyl}-1-piperidinyl)methyl]-4-biphenylyl}-4-pyridinyl acetate hydrochloride], which IC50 is on record?
The IC50 was under 0.125 mg/L.

How did the IC50 turn out when `Cc1[nH]c(C)c(-c2ccc(-c3ccc(CN4CCC(C(F)(F)F)CC4)cc3)cc2)c(=O)c1Cl.Cl` [Example 57, 3-chloro-2,6-dimethyl-5-(4'-{[4-(trifluoromethyl) -1-piperidinyl]methyl}-4-biphenylyl)-4(1H)-pyridinone hydrochloride] was run?
The IC50 was under 0.125 mg/L.

How did the IC50 turn out when `Cc1[nH]c(C)c(-c2ccc(-c3ccc(CN4CCC(F)(F)C4)cc3)cc2)c(=O)c1Cl.Cl` [Example 60, 3-chloro-5-{4'-[(3,3-difluoro-1-pyrrolidinyl)methyl]-4-biphenylyl}-2,6-dimethyl-4(1H)-pyridinone hydrochloride] was run?
Its IC50 is under 0.125 mg/L.

How did the IC50 turn out when `Cc1[nH]c(CO)c(-c2ccc(-c3ccc(CN4CCC(c5ccc(OC(F)(F)F)cc5)CC4)cc3)cc2)c(=O)c1Cl` [Example 61, 3-chloro-6-(hydroxymethyl)-2-methyl-5-{4'-[(4-{4-[(trifluoromethyl)oxy]phenyl}-1-piperidinyl)methyl]-4-biphenylyl}-4(1H)-pyridinone] was run?
The IC50 was under 0.125 mg/L.

`Cc1[nH]c(CO)c(-c2ccc(-c3ccc(CN4CCC(c5ccc(OC(F)(F)F)cc5)CC4)cc3)cc2)c(=O)c1Cl.Cl` [Example 62, 3-chloro-6-(hydroxymethyl)-2-methyl-5-{4'-[(4-{4-[(trifluoromethyl)oxy]phenyl}-1-piperidinyl)methyl]-4-biphenylyl}-4(1H)-pyridinone hydrochloride] was tested. Which IC50 did it give?
Its IC50 is under 0.125 mg/L.

`Cc1[nH]c(CO)c(Cl)c(=O)c1-c1ccc(-c2ccc(CN3CCC(c4ccc(OC(F)(F)F)cc4)CC3)cc2)cc1.Cl` [Example 63, 3-chloro-2-(hydroxymethyl)-6-methyl-5-{4'-[(4-{4-[(trifluoromethyl)oxy]phenyl}-1-piperidinyl)methyl]-4-biphenylyl}-4(1H)-pyridinone hydrochloride] was tested. Which IC50 did it give?
Its IC50 is under 0.125 mg/L.

Same assay, conditions: Plasmodium falciparum, Erythrocyte

How did the IC50 turn out when `Cc1[nH]c(C)c(-c2ccc(C#CCN(Cc3ccc(OC(F)(F)F)cc3)CC3CCCC3)cc2)c(=O)c1Cl` [Example 38, 3-Chloro-5-(4-{3-[(cyclopentylmethyl)({4-[(trifluoromethyl)oxy]phenyl}methyl)aminol-1-propyn-1-yl}phenyl)-2,6-dimethy)-4(1H)-pyridinone hydrochloride] was run?
Its IC50 is under 0.125 mg/L.

`Cc1[nH]c(C)c(-c2ccc(CCCN3CCC(c4ccc(OC(F)(F)F)cc4)CC3)cc2)c(=O)c1Cl` [Example 52, 3-Chloro-2,6-dimethyl-5-{4-[3-(4-{4-[(trifluoromethyl)oxy]phenyl}-1-piperidinyl)propyl]phenyl}-4(1H)-pvridinone hydrochloride] was tested. Which IC50 did it give?
Its IC50 is under 0.125 mg/L.
